Test results published in US7238469B2, “Carbon monoxide improves outcomes in tissue and organ transplants and suppresses apoptosis” (priority 2001, dated 2007).

How the values were obtained:
[1] = tested on: murine islets of Langerhans; assay: DNA fragmentation analysis (FACScan) of murine islets stimulated with TNF-α and cycloheximide; format: cell-based, C57BL/6 mice; settings: isolated murine islets; TNF-α plus cycloheximide; CO 1% for 24 hours; analysed after 48 hours
Protocol: βTC3 cultures were incubated with recombinant TNF-α (500 or 1000 U/ml) (R&D Systems) for 24 hours and islet cultures were stimulated with TNF-É (5000 U/ml) (R&D Systems) and cyclohexamide (CHX) (50 μg/ml) for 48 hours. βTC3 or islets were harvested, dispersed, fixed in 70% ethanol, and suspended in DNA staining buffer (PBS, pH 7.4, containing 0.1% Triton X-100, 0.1 mM EDTA, 50 μg/ml propidium iodide, […] Rnase A). DNA content was analyzed on a FACScan™ analyzer equipped with Cell QuestO Software (Becton Dickinson, Palo Alto, Calif.). Cells with a normal DNA content (2N) were scored as viable, whereas cells with a hypoploid DNA content (<2N, termed A^0) were scored as apoptotic. To exclude debris and apoptotic cell-free fragments, all events with an FL-2 area profile below that of chicken erythrocyte nuclei were excluded from analysis.
(§1) Cells and islets were exposed to 1% carbon monoxide in compressed air balanced with 5% CO2, as described elsewhere (see, e.g., Otterbein et al., Nature Med. 6:422–428, 2000). Islets were incubated in RPMI medium pre-saturated with carbon monoxide (4° C. overnight, 1% CO, 5% CO2) for two hours at 37° C. while treatment with 1% CO, 5% CO2 was continued.
Whether exogenous carbon monoxide protects murine islet cells from apoptosis was also investigated (FIG. 3). […] After 48 hours cells were analyzed on a FACScan™ for DNA fragmentation. […]

[2] = tested on: islets transplanted under the kidney capsule of diabetic syngeneic recipients; assay: Syngeneic marginal mass islet transplantation, time to normoglycemia; format: in vivo, C57BL/6 mice; settings: 250 islets pre-incubated two hours in medium pre-saturated with 1% CO
Protocol: as §1
Male C57BL/6 were purchased from Charles River Laboratories (Wilmington, Mass.) and housed in accordance with guidelines from the NIH. The experiments were approved by the Institutional Animal Care and Use Committee (IACUC). Recipient mice (8 weeks old) were rendered diabetic by a single intraperitoneal injection (220 mg/kg) of StreptozotocinO (Sigma) dissolved in citrate buffer. Mice received transplants if 2 consecutive non-fasting blood glucose levels of greater than 350 mg/dl were obtained from a whole blood sample.
250 islets 150–250 îm in diameter were hand-picked using a dissecting microscope. Islets were transplanted under the kidney capsule as described previously (Kaufman et al., J. Exp. Med. 172:291–302, 1990). […]
Whether carbon monoxide pre-incubation of islet grafts prior to transplantation results in better functional performance in vivo was investigated (FIGS. 6A–B). […] After transplantation, blood glucose levels were determined on a daily basis. […]

[3] = tested on: mouse hearts transplanted into rats; assay: Histomorphometric analysis of infarcted area in transplanted hearts; format: in vivo, BALB/c mouse hearts, Lewis rats; settings: 3 days after transplantation; SnPPIX treated rats that received exogenous CO
Description: Grafts were harvested 3 days after transplantation, […], and serially sectioned (5 îm) in toto from the apex to the base. Ten sections were placed per slide in a total of about 20–25 slides. Every fifth slide was stained with hematoxylin and eosin (H&E) for histomorphometric analysis. Two images per slide were captured by using a Nikon Eclipse E600O microscope (Nikon, Melville, N.Y.) connected to a Hitachi 3-CCD Color Camera (model HV-C20; Hitachi, Tokyo, Japan) and to a Power MacintoshO 7300/200 computer (Apple Computer, Cupertino, Calif.) equipped with IPLab Spectrum digital imaging software (Signal Analytics Corporation, Vienna, Va.). About 50 images were captured from each transplanted heart from two to three animals per group. Images were analyzed by manual segmentation, tracing the infarcted and noninfarcted areas from the right and left ventricles in each section. Areas corresponding to infarcted and noninfarcted tissue were calculated by digital imaging software as number of pixels corresponding to those areas. Infarcted and noninfarcted areas were then calculated as percentage of total area. Pooled data for each group, expressed as area in pixels or as percentage of infarction, was analyzed by using ANOVA. […] Results are expressed as mean=SD. […]

[4] = tested on: HO-1; assay: Western blot of HO-1 expression in cultured endothelial cells; format: cell-based, mouse; settings: data not shown
Protocol: Endothelial cells were washed in PBS (pH 7.2), harvested by scraping, and lysed in Laemmli buffer. Electrophoresis was conducted under denaturing conditions with 10% polyacrylamide gels. Proteins were transferred onto a polyvinyldifluoridine membrane (immobilon P; Millipore, Bedford, Mass.) by electroblotting and detected with rabbit polyclonal Abs directed against human HO-1 or HO-2 (StressGen, Victoria, Canada) or é-tubulin (Boehringer Mannheim, Mannheim, Germany). Proteins were visualized by using HRP-conjugated donkey anti-rabbit IgG or goat anti-mouse IgG (Pierce) and the ECL assay (Amersham Life Science, Arlington Heights, Ill.) according to manufacturer's instructions.

| Structure (SMILES) | apoptotic cells (DNA fragmentation analysis) [1] [%] | time needed to reach normoglycemia (median) [2] [days] | infarction of the left ventricle [3] [%] | infarction of the right ventricle [3] [%] | expression of HO-1 in cultured endothelial cells [4] |
| --- | --- | --- | --- | --- | --- |
| [C-]#[O+] [CO, carbon monoxide] | 11.7 | 7 | 1.8±3.4 | 8.4±5.3 | – |
| C=Cc1c2[n-]c(c1C)/C=c1\[n-]/c(c(C)c1C=C)=C\c1[n-]c(c(CCC(=O)O)c1C)C=c1[n-]/c(c(C)c1CCC(=O)O)=C\2.[Sn+4] [SnPPIX, tin protoporphyrin IX] | – | – | – | – | up-regulated the expression of HO-1 |
